From patent US8563520B2, “Treatment of ocular disease with inhibitors of alpha2 macroglobulin protein” (McGill University, priority 2005, dated 2013)
“Also recorded” adds a separate entry of the source. Like-named read-outs stand apart in the source and are kept apart here.

Columns and labels:
α2 macroglobulin mRNA = settings: betaxolol treatment; still significantly increased over normal IOP
Excerpt: Retinas were dissected from eyes treated as indicated (n=3) and mRNAs were purified and studied by Northern blotting with labeled α2 macroclobulin or actin (control) probes.

retinal mRNA = settings: day 28
Procedure: RNA preparation. Total RNA was isolated from retinal tissue using TRIZOL® (Life Technologies). Three retinas belonging to the same experimental group were pooled for the gene microarray experiment. RNA was then further purified using the RNAEASY® (QIAGEN®). The integrity of the RNA samples was assessed by running aliquots on RNA 6000 Nano LabChip (Agilent) using the 2100 bioanalyzer (Agilent).
Probe synthesis, hybridization and scanning were done according to Affymetrix protocol, as a service at the McGill University and Genome Quebec Innovation Centre. For the experiments shown, Rat U34 Genome Arrays (8,700 genes, Affymetrix) were used. Briefly, RNA samples were first converted to double stranded cDNA (T7-(dT)24 primer (Genset)). Then the cDNAs were purified and used to generate the biotinylated cRNA probes (Bioarray High Yield RNA transcript labeling kit (Enzo diagnostics)). An aliquot of the purified cRNA was analyzed on RNA 6000 Nano LabChip (Agilent) to verify the integrity and size distribution. Immediately after hybridization the chip was placed in the Affymetrix GeneChip Fluidics Station 400 (Affymetrix). In total, 10 low-stringency washes (63 SSPE, 0.01% Tween-20, 0.005% Antifoam) and 4 high-stringency washes (100 mM MES, 0.1 M NaCl, 0.01% Tween-20, 50 C) were performed (all reagents from Sigma). The array was then incubated with SAPE® (streptavidin/phycoerythrin stain, Molecular Probes), followed by 10 low stringency washes. The array was incubated with biotinylated anti-streptavidin antibody (Vector Laboratories) and washed again with 15 low stringency washes. Specifically bound probe was detected by placing the array in the Agilent GeneArray scanner 2500 (Affymetrix). The scanned images were analyzed using the Microarray Analysis Suite version 5.0 (Affymetrix). Statistical analyses were done with the help of the Kensington Discovery Edition version 1.8 (Inforsense).
Retinas were carefully dissected out to insure that only retinal mRNAs were prepared for gene microarray studies. Samples were obtained from sham operated eyes (normal IOP control, Group 1), eyes at 28 days high IOP (test, Group 2), and eyes 28 days after cauterization plus daily betaxolol treatment from day 3 onwards (Group 3). […] Samples from each of these groups (n=4 each group) were studied by gene microarrays (see FIG. 2 flowchart). A cutoff of 2.5-fold was used to afford significance (p<0.05).

[1] = test system: retinal ganglion cells (RGCs); experiment: RGC loss in high IOP (cauterization) glaucoma model, retrograde RGC labeling and counting; type: in vivo, rat; settings: for RGC loss (% at day 42 vs normal): 14 days high, 28 normal IOP
Procedure: Episcleral cauterization of rat eyes was performed under anesthesia.
RGCs were labeled with 3% DII (1,1-dioctadecyl-3,3,3,3-tetramethylindocarbocyanine perchlorate) or with 3% fluorogold. Briefly, Wistar rats were anesthetized and their heads were mounted in a stereotactic apparatus.
7 days after dye injection, the vasculature of the rats were perfused-fixed (transcardiac perfusion in phosphate-buffer (PB), followed by 4% PFA in PB) and the eyes were enucleated. After post-fixing for 1 hour cuts were made through the sclera to form a Maltese cross pattern and retinas detached from the eyecup at the optic nerve head. The retinas were flat-mounted on glass slides (vitreous side up) air-dried and cover-slipped with mounting medium (Molecular Probes). The retinas were observed under fluorescence microscopy (Zeiss). […] RGCs were recognized in flat mounted retinas by the presence of retrogradely transported dye and by morphology. RGCs in all 4 quadrants (16 images per retina) were averaged and presented as […] of area counted.
A puncture was made on the eye wall with a 30 G needle to allow the entrance of a cannula in the […]. A glass cannula (10 μm thickness), prepared with an upright microelectrode puller (Narishige) was connected through plastic tubing to a Hamilton syringe to dispense solutions of anti-α2 macroglobulin rabbit antibody (Calbiochem), control PBS, or control rabbit antibody (Sigma). Injections were done at day 14 and 21 post-surgery (in sham-operated control eyes with normal IOP, and cauterized eyes with high IOP). The intraocular injections were in 2 μl volumes containing a total of 2 μg antibody. This amount was selected because in quantitative western blots of whole rat retina there was an estimated total of ˜1 μg of α2 macroglobulin in glaucomatous eyes (data not shown). Ocular pressure was not affected by intraocular injections, the high IOP eyes remained high IOP and the normal IOP eyes remained normal IOP (data not shown).
A second paradigm was used to confirm the role of α2 macroglobulin in RGC death. Neutralizing antibodies to α2 macroglobulin were injected intraocularly in glaucomatous eyes with high IOP to determine whether RGC death could be prevented. The experimental model was to induce high IOP for 14 days to trigger α2 macroglobulin over-expression and RGC damage, before the initiation of α2 macroglobulin neutralizing therapy. Neutralization was used as single therapy, or was combined with daily betaxolol treatment to better reflect the clinical setting in which glaucoma patients would be simultaneously treated with pressure-lowering drugs. Neutralizing antibodies were given at days 14 and 21 after cauterization, and surviving RGCs, identified by retrograde labeling, were counted at day 42 post-surgery. […]

rat eyes = settings: for IOP of normal eyes: daily topical betaxolol 0.5% eye drops; for IOP of cauterized (high IOP) eyes: daily topical betaxolol 0.5% eye drops from day 3 post-cauterization
Procedure: Episcleral cauterization of rat eyes was performed under anesthesia. After a conjunctival incision, extra-ocular muscles were isolated and the major limbal draining veins were identified based on location, relative immobility, larger caliber and branching pattern. Cauterization of three episcleral vessels in the right eye was done with a 30″ cautery tip. The left eye in each animal was used as normal IOP control after sham-surgery (conjunctival incisions with no cauterization).
IOP was gauged using a Tonopen XL tonometer under light anesthesia (intramuscular injection of ketamine, […]; xylazine, 0.32 mg/kg; and acepromazine, 0.4 mg/kg).
A selective β-blocker (betaxolol 0.5%, Alcon) was applied daily as eye drops.

SMILES: CC(C)NCC(O)COc1ccc(CCOCC2CC2)cc1 (stereo not drawn) [betaxolol]
- increase of retinal α2 macroglobulin mRNA at day 28 of high IOP (α2 macroglobulin mRNA): attenuated slightly
- Relative Change versus non-cauterized eyes, cauterized + betaxolol B (retinal mRNA; gene ATPase alpha-1 subunit (M74494)): 1.5
- Relative Change versus non-cauterized eyes, cauterized + betaxolol B (retinal mRNA; gene Amphiphysin 1 (Y13381)): −1.1
- Relative Change versus non-cauterized eyes, cauterized + betaxolol B (retinal mRNA; gene Amyloid precursor-like protein 2 (X77934)): 1.1
- Relative Change versus non-cauterized eyes, cauterized + betaxolol B (retinal mRNA; gene Asparagine synthase (U07201)): −1.1
- Relative Change versus non-cauterized eyes, cauterized + betaxolol B (retinal mRNA; gene B-2 arylamine N-acetyltransferase (U01347)): 1.5
- Relative Change versus non-cauterized eyes, cauterized + betaxolol B (retinal mRNA; gene Beta A3/A1 crystallin (X15143)): −1.1
- Relative Change versus non-cauterized eyes, cauterized + betaxolol B (retinal mRNA; gene Clone RKIAS43 (AA892520)): 2.9
- Relative Change versus non-cauterized eyes, cauterized + betaxolol B (retinal mRNA; gene Crybb2 (X83671)): −1.0
- Relative Change versus non-cauterized eyes, cauterized + betaxolol B (retinal mRNA; gene Cyclic nucleotide-gated cation channel (AJ000515)): 3.4
- Relative Change versus non-cauterized eyes, cauterized + betaxolol B (retinal mRNA; gene Gial fibrillary acidic protein (AF028784)): 1.4
- Relative Change versus non-cauterized eyes, cauterized + betaxolol B (retinal mRNA; gene Gzα (U77483)): 1.1
- Relative Change versus non-cauterized eyes, cauterized + betaxolol B (retinal mRNA; gene Helicase RAP 30 (L01267)): 1.2
- Relative Change versus non-cauterized eyes, cauterized + betaxolol B (retinal mRNA; gene PSD-95/SAP90-asociated protein-4 (U67140)): −1.0
- Relative Change versus non-cauterized eyes, cauterized + betaxolol B (retinal mRNA; gene Protein phosphatase 1 gamma (S78217)): 2.5
- Relative Change versus non-cauterized eyes, cauterized + betaxolol B (retinal mRNA; gene RBCK (AB011369)): 1.3
- Relative Change versus non-cauterized eyes, cauterized + betaxolol B (retinal mRNA; gene Ras-related p23 (X12535)): 1.1
- Relative Change versus non-cauterized eyes, cauterized + betaxolol B (retinal mRNA; gene Reggie1-1 (AF023302)): 1.8
- Relative Change versus non-cauterized eyes, cauterized + betaxolol B (retinal mRNA; gene Ribosomal protein L23-related product (U62635)): 3.8
- Relative Change versus non-cauterized eyes, cauterized + betaxolol B (retinal mRNA; gene S-adenosylmethionine synthase (J05571)): 1.1
- Relative Change versus non-cauterized eyes, cauterized + betaxolol B (retinal mRNA; gene SPARC (U75928)): 1.9
- Relative Change versus non-cauterized eyes, cauterized + betaxolol B (retinal mRNA; gene cDNA clone rx00382 (AI639155)): 7.2
- Relative Change versus non-cauterized eyes, cauterized + betaxolol B (retinal mRNA; gene cDNA clone rx01295 (AI639375)): 4.8
- Relative Change versus non-cauterized eyes, cauterized + betaxolol B (retinal mRNA; gene cDNA clone rx05013 (AI639441)): 2.8
- Relative Change versus non-cauterized eyes, cauterized + betaxolol B (retinal mRNA; gene α2 macroglobulin (M23566)): 5.6
- RGC loss (% at day 42 vs normal) ([1]; daily betaxolol days 14-42, no Ab injection): 19±1%
- RGC loss (% at day 42 vs normal) ([1]; daily betaxolol days 14-42, no Ab injection, listed as Betaxolol): 19 ± 1%
- RGC loss (% at day 42 vs normal) ([1]; daily betaxolol days 14-42 plus control serum days 14 and 21): 21 ± 5%
- rate of RGC loss ([1]; daily betaxolol, IOP normalized from day 7 onwards): reduces the rate of RGC loss, but does not prevent it; also recorded: reduced the average rate of RGC loss, but did not prevent it
- IOP of normal eyes (rat eyes): no significant effect on normal IOP
- IOP of cauterized (high IOP) eyes (rat eyes): full normalization of IOP after 3 days
- IOP of cauterized (high IOP) eyes (rat eyes; listed as Betaxolol): fully normalized high IOP from day 7 onward
- IOP of normal eyes (rat eyes; listed as Betaxolol): no significant effect
